Legend:
Test in all cases: kinase selectivity panel
Assay type in all cases: biochemical
[1] = target: T1, IGF-1R (Homo sapiens, UniProt P08069); details: read-out: percentage of control activity (POC), IGF-1R
T1 construct: purchased Eurofins Pharma Discovery Services (KinaseProfiler; Cerep BioPrint panel)
Summary of the method: (§1)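 First, 125 representative kinases were exposed to 10 μM compound in duplicate; next, selected activities were titrated over 9 concentrations in duplicate, and IC50 values were calculated.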

[2] = target: T2, PKG1α (Homo sapiens, UniProt Q13976); details: read-out: percentage of control activity (POC), PKG1α
T2 construct: purchased Eurofins Pharma Discovery Services (KinaseProfiler; Cerep BioPrint panel)
T2 sequence (Q13976 1-671): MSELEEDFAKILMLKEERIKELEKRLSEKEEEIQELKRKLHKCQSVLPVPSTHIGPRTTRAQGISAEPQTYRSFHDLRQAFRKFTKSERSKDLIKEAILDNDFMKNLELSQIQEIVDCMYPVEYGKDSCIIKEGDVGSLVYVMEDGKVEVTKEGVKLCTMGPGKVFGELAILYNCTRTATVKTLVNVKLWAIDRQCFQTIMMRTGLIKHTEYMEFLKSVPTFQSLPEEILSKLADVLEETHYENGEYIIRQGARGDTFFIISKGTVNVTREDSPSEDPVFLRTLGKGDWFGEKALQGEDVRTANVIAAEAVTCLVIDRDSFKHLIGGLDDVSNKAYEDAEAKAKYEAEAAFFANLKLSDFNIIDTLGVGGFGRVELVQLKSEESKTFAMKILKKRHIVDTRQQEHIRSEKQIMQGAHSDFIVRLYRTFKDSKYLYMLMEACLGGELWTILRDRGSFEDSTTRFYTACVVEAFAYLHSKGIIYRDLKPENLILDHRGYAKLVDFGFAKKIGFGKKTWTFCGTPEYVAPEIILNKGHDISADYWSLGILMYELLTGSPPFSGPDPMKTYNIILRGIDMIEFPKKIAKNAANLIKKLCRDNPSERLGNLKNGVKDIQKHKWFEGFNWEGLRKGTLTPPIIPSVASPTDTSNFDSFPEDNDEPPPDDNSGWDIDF
Summary of the method: as §1

[3] = target: T3, PKCδ (Homo sapiens, UniProt Q05655); details: read-out: percentage of control activity (POC), PKCδ
T3 construct: purchased Eurofins Pharma Discovery Services (KinaseProfiler; Cerep BioPrint panel)
Summary of the method: as §1

[4] = target: T4, CDK1/cyclinB (Homo sapiens, UniProt P06493); details: read-out: percentage of control activity (POC), CDK1/cyclinB
T4 construct: purchased Eurofins Pharma Discovery Services (KinaseProfiler; Cerep BioPrint panel)
Summary of the method: as §1

[5] = target: T5, Mnk2 (Homo sapiens, UniProt Q9HBH9); details: read-out: percentage of control activity (POC), Mnk2
T5 construct: purchased Eurofins Pharma Discovery Services (KinaseProfiler; Cerep BioPrint panel)
Summary of the method: as §1

[6] = target: T6, RIPK2 (Homo sapiens, UniProt O43353); details: read-out: percentage of control activity (POC), RIPK2
T6 construct: purchased Eurofins Pharma Discovery Services (KinaseProfiler; Cerep BioPrint panel)
Summary of the method: as §1

[7] = target: T7, Plk3 (Homo sapiens, UniProt Q9H4B4); details: read-out: percentage of control activity (POC), Plk3
T7 construct: purchased Eurofins Pharma Discovery Services (KinaseProfiler; Cerep BioPrint panel)
Summary of the method: as §1

[8] = target: T8, Flt3 (Homo sapiens, UniProt P36888); details: read-out: percentage of control activity (POC), Flt3
T8 construct: purchased Eurofins Pharma Discovery Services (KinaseProfiler; Cerep BioPrint panel)
T8 sequence (P36888 27-993): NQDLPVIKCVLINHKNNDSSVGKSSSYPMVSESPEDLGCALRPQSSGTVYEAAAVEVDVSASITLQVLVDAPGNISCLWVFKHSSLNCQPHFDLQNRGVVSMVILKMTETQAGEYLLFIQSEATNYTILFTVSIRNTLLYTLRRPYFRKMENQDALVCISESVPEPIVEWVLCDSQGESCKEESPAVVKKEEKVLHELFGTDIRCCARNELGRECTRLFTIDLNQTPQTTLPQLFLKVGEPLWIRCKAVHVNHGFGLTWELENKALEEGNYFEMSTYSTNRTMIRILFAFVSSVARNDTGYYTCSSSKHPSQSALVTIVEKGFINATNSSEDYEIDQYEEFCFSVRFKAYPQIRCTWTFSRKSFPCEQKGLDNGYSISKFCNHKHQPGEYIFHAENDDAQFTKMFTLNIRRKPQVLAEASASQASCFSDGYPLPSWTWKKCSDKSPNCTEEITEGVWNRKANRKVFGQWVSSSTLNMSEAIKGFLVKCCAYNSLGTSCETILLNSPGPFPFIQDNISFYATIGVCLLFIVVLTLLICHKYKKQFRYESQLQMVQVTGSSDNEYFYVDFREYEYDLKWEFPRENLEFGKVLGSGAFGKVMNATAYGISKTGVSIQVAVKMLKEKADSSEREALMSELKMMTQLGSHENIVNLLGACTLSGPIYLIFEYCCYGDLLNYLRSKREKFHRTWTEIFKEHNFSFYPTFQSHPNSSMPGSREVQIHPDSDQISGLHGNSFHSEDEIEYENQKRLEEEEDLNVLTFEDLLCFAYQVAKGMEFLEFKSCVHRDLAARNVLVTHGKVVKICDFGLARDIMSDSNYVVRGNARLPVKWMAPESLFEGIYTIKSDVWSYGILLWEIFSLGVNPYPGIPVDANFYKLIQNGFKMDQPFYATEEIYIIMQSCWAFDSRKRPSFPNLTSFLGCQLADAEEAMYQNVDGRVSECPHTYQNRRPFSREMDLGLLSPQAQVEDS
Summary of the method: as §1

[9] = target: T9, Rsk2 (Homo sapiens, UniProt P51812); details: read-out: percentage of control activity (POC), Rsk2
T9 construct: purchased Eurofins Pharma Discovery Services (KinaseProfiler; Cerep BioPrint panel)
Summary of the method: as §1

[10] = target: T10, DRAK1 (Homo sapiens, UniProt Q9UEE5); details: read-out: percentage of control activity (POC), DRAK1
T10 construct: purchased Eurofins Pharma Discovery Services (KinaseProfiler; Cerep BioPrint panel)
T10 sequence (Q9UEE5 1-414): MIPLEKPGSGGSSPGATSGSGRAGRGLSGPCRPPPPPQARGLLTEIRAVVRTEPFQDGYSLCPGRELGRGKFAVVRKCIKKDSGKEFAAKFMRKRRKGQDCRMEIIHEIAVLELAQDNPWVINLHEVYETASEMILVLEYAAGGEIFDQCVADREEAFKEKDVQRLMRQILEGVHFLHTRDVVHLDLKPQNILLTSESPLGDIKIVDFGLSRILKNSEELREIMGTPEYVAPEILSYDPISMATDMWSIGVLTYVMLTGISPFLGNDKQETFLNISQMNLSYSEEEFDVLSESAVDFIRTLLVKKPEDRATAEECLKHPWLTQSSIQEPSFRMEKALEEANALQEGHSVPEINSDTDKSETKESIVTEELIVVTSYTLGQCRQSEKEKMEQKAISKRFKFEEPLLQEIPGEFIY
Summary of the method: as §1

[11] = target: T11, CDK2/cyclinA (Homo sapiens, UniProt P24941); details: read-out: percentage of control activity (POC), CDK2/cyclinA
T11 construct: purchased Eurofins Pharma Discovery Services (KinaseProfiler; Cerep BioPrint panel)
Summary of the method: as §1

T5 sequence (Q9HBH9 whole entry): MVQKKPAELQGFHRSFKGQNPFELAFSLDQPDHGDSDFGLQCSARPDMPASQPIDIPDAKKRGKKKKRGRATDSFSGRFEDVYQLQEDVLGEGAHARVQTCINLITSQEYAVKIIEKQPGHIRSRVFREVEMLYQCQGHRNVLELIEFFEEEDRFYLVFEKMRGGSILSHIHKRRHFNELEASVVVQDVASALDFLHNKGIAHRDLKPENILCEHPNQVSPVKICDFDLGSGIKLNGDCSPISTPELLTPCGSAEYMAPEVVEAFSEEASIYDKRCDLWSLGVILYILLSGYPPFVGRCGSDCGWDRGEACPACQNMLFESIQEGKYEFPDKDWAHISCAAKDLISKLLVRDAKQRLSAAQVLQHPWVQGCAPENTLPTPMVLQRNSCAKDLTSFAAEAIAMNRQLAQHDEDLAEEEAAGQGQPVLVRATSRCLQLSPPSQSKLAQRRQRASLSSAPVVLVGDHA
T6 sequence (O43353 whole entry): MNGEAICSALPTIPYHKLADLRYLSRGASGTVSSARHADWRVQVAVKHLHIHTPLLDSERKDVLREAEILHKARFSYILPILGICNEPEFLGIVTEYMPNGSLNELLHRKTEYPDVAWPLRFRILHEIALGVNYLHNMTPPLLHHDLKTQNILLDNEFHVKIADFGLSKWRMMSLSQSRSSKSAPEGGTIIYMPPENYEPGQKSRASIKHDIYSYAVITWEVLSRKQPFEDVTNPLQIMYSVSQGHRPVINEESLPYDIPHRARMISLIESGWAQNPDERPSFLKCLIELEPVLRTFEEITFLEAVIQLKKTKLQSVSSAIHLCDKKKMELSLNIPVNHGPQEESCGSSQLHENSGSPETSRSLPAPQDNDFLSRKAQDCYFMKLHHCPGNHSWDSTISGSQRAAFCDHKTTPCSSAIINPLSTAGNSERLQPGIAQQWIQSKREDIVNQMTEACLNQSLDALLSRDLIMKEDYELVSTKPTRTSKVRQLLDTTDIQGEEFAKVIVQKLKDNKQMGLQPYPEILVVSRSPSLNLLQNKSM
T7 sequence (Q9H4B4 whole entry): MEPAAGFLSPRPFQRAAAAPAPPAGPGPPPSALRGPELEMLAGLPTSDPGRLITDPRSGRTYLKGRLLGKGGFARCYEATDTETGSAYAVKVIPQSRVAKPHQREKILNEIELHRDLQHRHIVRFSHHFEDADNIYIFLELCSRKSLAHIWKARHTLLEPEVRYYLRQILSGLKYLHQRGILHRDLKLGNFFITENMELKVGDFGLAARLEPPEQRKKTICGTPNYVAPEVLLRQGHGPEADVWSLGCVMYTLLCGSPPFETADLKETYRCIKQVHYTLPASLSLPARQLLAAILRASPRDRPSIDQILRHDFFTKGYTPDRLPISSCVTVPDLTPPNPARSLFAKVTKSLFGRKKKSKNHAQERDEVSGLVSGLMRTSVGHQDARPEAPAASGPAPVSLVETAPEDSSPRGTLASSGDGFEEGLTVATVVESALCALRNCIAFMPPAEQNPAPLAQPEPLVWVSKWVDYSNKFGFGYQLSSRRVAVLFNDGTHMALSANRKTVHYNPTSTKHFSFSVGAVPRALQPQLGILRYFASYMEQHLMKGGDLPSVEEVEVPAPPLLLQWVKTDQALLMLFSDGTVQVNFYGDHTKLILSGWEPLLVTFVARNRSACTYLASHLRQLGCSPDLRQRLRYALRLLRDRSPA
T4 sequence (P06493 whole entry): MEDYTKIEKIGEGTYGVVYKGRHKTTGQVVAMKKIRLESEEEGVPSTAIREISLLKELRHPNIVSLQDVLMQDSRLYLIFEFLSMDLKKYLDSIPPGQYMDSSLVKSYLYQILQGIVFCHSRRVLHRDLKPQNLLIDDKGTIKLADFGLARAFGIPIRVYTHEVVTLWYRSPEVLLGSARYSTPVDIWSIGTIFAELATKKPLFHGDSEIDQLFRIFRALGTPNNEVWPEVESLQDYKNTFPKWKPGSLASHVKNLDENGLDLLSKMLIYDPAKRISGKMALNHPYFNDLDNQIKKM
T4 sequence (P14635 whole entry partner): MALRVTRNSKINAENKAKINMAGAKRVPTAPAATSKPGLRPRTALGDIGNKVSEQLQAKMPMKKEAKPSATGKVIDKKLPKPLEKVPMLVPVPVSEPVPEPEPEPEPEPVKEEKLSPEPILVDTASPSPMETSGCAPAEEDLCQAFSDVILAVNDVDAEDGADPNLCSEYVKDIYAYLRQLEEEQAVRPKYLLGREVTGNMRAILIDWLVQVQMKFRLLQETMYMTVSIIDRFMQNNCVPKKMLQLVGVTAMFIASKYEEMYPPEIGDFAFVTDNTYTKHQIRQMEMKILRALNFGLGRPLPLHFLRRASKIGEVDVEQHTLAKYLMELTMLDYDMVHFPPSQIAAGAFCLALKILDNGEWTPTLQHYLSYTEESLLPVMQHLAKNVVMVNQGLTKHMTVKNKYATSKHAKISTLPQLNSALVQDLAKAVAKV
T1 sequence (P08069 31-1367): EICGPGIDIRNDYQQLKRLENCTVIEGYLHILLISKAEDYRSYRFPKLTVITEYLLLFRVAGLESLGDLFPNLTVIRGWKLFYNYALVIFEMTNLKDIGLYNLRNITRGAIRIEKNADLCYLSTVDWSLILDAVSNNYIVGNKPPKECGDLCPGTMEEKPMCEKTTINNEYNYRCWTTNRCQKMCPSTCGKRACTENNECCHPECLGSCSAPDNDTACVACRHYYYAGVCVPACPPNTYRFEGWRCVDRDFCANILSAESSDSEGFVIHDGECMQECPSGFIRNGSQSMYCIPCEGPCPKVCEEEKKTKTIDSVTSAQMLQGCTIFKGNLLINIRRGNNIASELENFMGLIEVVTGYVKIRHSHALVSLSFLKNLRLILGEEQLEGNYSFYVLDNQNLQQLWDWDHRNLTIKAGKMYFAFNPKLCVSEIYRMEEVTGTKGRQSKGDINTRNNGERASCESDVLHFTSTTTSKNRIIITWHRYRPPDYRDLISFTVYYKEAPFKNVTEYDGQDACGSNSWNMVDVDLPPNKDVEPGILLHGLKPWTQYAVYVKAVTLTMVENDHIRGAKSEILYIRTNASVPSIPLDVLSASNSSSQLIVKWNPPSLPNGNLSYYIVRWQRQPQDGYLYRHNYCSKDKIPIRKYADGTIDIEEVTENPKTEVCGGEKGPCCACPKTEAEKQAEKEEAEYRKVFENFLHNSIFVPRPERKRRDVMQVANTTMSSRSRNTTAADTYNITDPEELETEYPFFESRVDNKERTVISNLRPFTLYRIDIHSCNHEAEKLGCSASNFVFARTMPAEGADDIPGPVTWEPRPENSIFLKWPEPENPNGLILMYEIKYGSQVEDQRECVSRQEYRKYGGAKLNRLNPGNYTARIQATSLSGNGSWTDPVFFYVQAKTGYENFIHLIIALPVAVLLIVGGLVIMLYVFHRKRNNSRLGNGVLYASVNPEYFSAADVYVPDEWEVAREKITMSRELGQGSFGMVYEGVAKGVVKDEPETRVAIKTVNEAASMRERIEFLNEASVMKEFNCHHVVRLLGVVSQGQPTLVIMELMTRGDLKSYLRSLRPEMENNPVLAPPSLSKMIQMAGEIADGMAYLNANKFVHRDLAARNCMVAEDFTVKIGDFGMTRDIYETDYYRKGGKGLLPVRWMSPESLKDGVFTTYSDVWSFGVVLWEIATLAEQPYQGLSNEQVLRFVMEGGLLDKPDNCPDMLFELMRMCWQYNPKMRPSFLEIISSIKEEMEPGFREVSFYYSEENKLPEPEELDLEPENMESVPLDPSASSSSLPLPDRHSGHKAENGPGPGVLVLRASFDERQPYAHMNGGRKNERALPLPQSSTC
T3 sequence (Q05655 whole entry): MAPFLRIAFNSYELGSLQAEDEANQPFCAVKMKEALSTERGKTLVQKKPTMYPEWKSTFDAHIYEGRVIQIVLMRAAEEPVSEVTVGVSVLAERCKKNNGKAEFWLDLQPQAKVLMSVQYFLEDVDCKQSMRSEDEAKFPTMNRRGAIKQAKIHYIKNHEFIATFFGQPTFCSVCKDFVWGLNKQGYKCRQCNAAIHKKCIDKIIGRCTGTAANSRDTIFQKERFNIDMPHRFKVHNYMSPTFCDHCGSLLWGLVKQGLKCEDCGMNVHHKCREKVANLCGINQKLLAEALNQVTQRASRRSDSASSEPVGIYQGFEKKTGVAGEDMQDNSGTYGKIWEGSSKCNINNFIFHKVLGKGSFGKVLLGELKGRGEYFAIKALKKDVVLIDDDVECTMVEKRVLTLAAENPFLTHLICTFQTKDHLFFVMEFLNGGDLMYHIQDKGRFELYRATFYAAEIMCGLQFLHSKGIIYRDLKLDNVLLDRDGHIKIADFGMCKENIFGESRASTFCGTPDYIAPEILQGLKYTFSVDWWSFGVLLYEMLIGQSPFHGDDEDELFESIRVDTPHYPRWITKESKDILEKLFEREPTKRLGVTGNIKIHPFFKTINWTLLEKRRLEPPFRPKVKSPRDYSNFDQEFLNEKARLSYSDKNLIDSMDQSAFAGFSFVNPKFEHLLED

Row | remaining activity at 10 µM [1] [%] | remaining activity at 10 µM [2] [%] | remaining activity at 10 µM [3] [%] | remaining activity at 10 µM [4] [%] | remaining activity at 10 µM [5] [%] | remaining activity at 10 µM [6] [%] | remaining activity at 10 µM [7] [%] | remaining activity at 10 µM [8] [%] | remaining activity at 10 µM [9] [%] | remaining activity at 10 µM [10] [%] | remaining activity at 10 µM [11] [%] | SMILES
1 | 113 | 108 | 109 | 100 | 100 | 61 | 111 | 104 | 101 | 99 | 105 | CC(C)(C)N1CCC(c2cc(-c3ccc(F)cc3Cl)c3cc[n+]([O-])c(-c4c(Cl)cccc4Cl)c3n2)CC1 [compound 2]
2 | 89 | 102 | 104 | 96 | 91 | 94 | 101 | 110 | 103 | 98 | 101 | Cc1ccc(C(=O)NCC2CC2)cc1-c1ccc2c(c1)NC(=O)C21CCCC1 [compound 3]
3 | 123 | 105 | 107 | 101 | 98 | 100 | 104 | 110 | 112 | 144 | 105 | COc1c(NC(=O)c2ccc(C)c(-c3nnc4c(NCC(C)(C)C)nccn34)c2)cc(C(C)(C)C)cc1NS(C)(=O)=O [compound 7, reference compound]

Row | SMILES | remaining activity at 10 µM [1] [%] | remaining activity at 10 µM [2] [%] | remaining activity at 10 µM [3] [%] | remaining activity at 10 µM [4] [%] | remaining activity at 10 µM [5] [%] | remaining activity at 10 µM [6] [%] | remaining activity at 10 µM [7] [%] | remaining activity at 10 µM [8] [%] | remaining activity at 10 µM [9] [%] | remaining activity at 10 µM [10] [%] | remaining activity at 10 µM [11] [%]
4 | Cn1cc(-c2cccc(-c3nc(C(=O)NC4C5CC6CC4CC(O)(C6)C5)c(N)nc3N)c2)cn1 (stereo not shown) [compound 4] | 94 | 97 | 97 | 64 | 86 | 61 | 95 | 95 | 88 | 89 | 91
5 | CS(=O)(=O)N1CCN(c2ccc(Nc3ncc(C(N)=O)c(NC4CC4)n3)cc2)CC1 [compound 5] | 64 | 66 | 8 | 71 | 84 | 81 | 63 | 1 | -2 | 1 | 78

Reference: paper PMC5761851, “Application of a phenotypic drug discovery strategy to identify biological and chemical starting points for inhibition of TSLP production in lung epithelial cells” (PLoS ONE, 2018)
